Measured values taken from patent publication US9193722B2, “Tri-cyclic pyrazolopyridine kinase inhibitors” (Vertex Pharmaceuticals Incorporated, priority 2008, dated 2015).

Assays:
Assay type in all cases: biochemical
[1] = biological target: PKC delta kinase (Homo sapiens, UniProt Q05655); test: PKC delta kinase inhibition, coupled-enzyme (NADH absorbance) assay, Ki; details: 150 μM ATP, 46 nM PKC delta kinase, 30° C.; read-out: Ki PKC delta
Experimental: (§1) An assay buffer solution was prepared which consisted of 100 mM HEPES (pH 7.5), 10 mM MgCl2, 25 mM NaCl, 0.1 mM EDTA and 0.01% Brij. […] To 16 μL of this enzyme buffer, in a 384 well plate, was added 1 μL of VRT stock solution in DMSO. The mixture was allowed to equilibrate for 10 mins at 30° C. The enzyme reaction was initiated by the addition of 16 μL stock ATP solution prepared in assay buffer to a final assay concentration of 150 μM. Initial rate data was determined from the rate of change of absorbance at 340 nm (corresponding to stoichiometric consumption of NADH) using a Molecular Devices Spectramax plate reader (Sunnyvale, Calif.) over 15 mins at 30° C. […] Ki values were calculated from initial rate data by non-linear regression using the Prism software package (Prism 4.0a, Graphpad Software, San Diego, Calif.).

[2] = biological target: PKC theta kinase (Homo sapiens, UniProt Q04759); test: PKC theta kinase inhibition, coupled-enzyme (NADH absorbance) assay, Ki; details: 240 μM ATP, 18 nM PKC theta kinase, 30° C.
Sequence of PKC theta kinase (Q04759 whole entry): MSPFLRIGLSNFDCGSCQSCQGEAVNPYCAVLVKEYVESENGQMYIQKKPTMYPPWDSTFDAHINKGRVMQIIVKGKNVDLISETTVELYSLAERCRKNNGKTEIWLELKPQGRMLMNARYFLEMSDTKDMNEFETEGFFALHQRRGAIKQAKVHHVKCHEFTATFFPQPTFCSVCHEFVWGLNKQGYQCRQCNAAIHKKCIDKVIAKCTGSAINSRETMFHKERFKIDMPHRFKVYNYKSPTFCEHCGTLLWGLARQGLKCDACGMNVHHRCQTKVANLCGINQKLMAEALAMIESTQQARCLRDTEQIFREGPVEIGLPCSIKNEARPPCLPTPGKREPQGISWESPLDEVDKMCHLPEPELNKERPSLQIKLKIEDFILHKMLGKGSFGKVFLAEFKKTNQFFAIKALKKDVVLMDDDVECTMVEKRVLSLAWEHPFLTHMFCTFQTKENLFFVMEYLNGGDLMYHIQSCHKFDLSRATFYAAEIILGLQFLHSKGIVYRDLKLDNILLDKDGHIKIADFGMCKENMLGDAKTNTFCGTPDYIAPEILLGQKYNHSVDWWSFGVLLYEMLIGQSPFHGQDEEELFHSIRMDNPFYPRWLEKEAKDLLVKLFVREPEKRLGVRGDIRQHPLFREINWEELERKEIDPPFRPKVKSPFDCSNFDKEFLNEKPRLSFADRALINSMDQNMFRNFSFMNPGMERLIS
Experimental: An assay buffer solution was prepared which consisted of 100 mM HEPES (pH 7.5), 10 mM MgCl2, 25 mM NaCl, 0.1 mM EDTA and 0.01% Brij. […] To 60 μL of this enzyme buffer, in a 384 well plate, was added 2 μL of VRT stock solution in DMSO. The mixture was allowed to equilibrate for 10 mins at 30° C. […] Ki values were calculated from initial rate data by non-linear regression using the Prism software package (Prism 4.0a, Graphpad Software, San Diego, Calif.).

[3] = biological target: PKC alpha kinase (Homo sapiens, UniProt P17252); test: PKC alpha kinase inhibition, coupled-enzyme (NADH absorbance) assay, Ki; details: 130 μM ATP, 4.5 nM PKC alpha kinase, 30° C.
Experimental: as §1, with “EDTA, 100 μM CaCl2” for “EDTA”, “130” for “150”

Sequence of PKC delta kinase (Q05655 whole entry): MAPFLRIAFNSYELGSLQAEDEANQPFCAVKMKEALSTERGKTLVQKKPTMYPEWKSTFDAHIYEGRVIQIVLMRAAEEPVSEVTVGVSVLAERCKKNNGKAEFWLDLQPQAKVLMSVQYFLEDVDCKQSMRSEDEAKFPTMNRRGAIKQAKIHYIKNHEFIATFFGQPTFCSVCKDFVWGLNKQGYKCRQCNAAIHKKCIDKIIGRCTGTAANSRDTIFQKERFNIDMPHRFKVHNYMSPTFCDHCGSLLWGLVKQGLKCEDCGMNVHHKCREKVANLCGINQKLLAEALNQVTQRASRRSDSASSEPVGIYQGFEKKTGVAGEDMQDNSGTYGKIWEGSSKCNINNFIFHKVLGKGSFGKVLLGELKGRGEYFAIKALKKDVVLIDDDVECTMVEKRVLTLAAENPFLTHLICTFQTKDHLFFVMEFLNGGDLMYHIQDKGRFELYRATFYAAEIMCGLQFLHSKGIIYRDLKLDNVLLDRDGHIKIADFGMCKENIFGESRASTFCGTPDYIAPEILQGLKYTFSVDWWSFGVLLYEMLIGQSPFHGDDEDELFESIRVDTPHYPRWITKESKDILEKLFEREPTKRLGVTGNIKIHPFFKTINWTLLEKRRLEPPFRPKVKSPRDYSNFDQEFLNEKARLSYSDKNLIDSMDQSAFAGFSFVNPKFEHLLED

SMILES | Ki [1] [nM] | Ki [2] [nM] | Ki [3] [nM]
c1cc(-c2n[nH]c3ncccc23)nc(N2CCCNCC2)c1 [Compound 1] | < 500 | < 50 | –
C#Cc1cnc2[nH]nc(-c3cccc(N4CCCNCC4)n3)c2c1 [Compound 2] | – | < 500 | –
FC(F)(F)c1ccc(N2CCNC(c3ccccc3)C2)nc1-c1n[nH]c2ncccc12 (stereo not shown) [Compound 5] | > 2000 | < 50 | > 1250
CC(C)C[C@H]1CN(c2cccc(-c3n[nH]c4ncccc34)n2)CCN1 [Compound 7, (S)-3-(6-(3-isobutylpiperazin-1-yl)pyridin-2-yl)-1H-pyrazolo[3,4-b]pyridine] | – | – | < 2800
FC(F)(F)c1ccc(N2CCNCC2)nc1-c1n[nH]c2ncccc12 [Compound 8] | < 2800 | < 500 | > 1250
c1cc(-c2n[nH]c3ncccc23)nc(N2CCNCC2)c1 [Compound 9] | – | – | < 2800
CC(C)C[C@H]1CN(c2cccc(-c3n[nH]c4ncccc34)n2)C[C@H](C)N1 [Compound 10] | > 2000 | < 2800 | > 1250
CC(C)C[C@H]1CN(c2cccc(-c3n[nH]c4ncccc34)n2)C[C@@H](C)N1 [Compound 11] | < 50 | < 50 | < 2800
CC(C)[C@H]1CN(c2cccc(-c3n[nH]c4ncccc34)n2)CCN1 [Compound 62] | – | – | < 2800
C[C@@H]1CN(c2cccc(-c3n[nH]c4ncccc34)n2)CCN1 [Compound 70] | – | – | > 1250
CC(C)C[C@H]1CN(c2ccc(F)c(-c3n[nH]c4ncccc34)n2)CCN1 [Compound 112] | < 500 | – | > 1250
CC(C)CC1(C)CN(c2ccc(C(F)(F)F)c(-c3n[nH]c4ncccc34)n2)CCC1N (stereo not shown) [Compound 158] | – | – | < 500
CC(C)C[C@H]1CN(c2cccc(-c3n[nH]c4ncccc34)n2)CC[C@H]1N [Compound 168] | – | – | < 500
CC(C)C(C)(O)C1CN(c2ccc(F)c(-c3n[nH]c4ncccc34)n2)CCN1 (stereo not shown) [Compound 180] | < 500 | – | > 1250
CC(C)C(C)(O)C1CN(c2ccc(F)c(-c3n[nH]c4ncccc34)n2)CCN1 (stereo not shown) [Compound 201] | < 500 | – | < 2800
CC(C)C(C)(O)C1CN(c2ccc(F)c(-c3n[nH]c4ncccc34)n2)CCN1 (stereo not shown) [Compound 204] | < 500 | – | > 1250
CC(C)C(C)(O)C1CN(c2ccc(F)c(-c3n[nH]c4ncccc34)n2)CCN1 (stereo not shown) [Compound 205] | > 1250 | – | > 1250
CC(C)C(C)(O)C1CN(c2ccc(F)c(-c3n[nH]c4ncccc34)n2)CCN1C (stereo not shown) [Compound 231] | < 500 | < 50 | –

SMILES | Ki [1] [nM] | Ki [2] [nM] | Ki [3] [nM]
CC(C)C[C@@H]1CN(c2cccc(-c3n[nH]c4ncccc34)n2)CCN1 [Compound 235] | – | – | < 2800
CC(C)C(C)(O)C1CN(c2ccc(C(F)(F)F)c(-c3n[nH]c4ncccc34)n2)CCN1 (stereo not shown) [Compound 237] | < 2800 | – | –
CC(N)[C@H]1CCCN(c2ccc(F)c(-c3n[nH]c4ncccc34)n2)C1 (stereo partly shown) [Compound 263] | < 2800 | < 500 | –
CC(O)(C1CC1)C1CN(c2ccc(F)c(-c3n[nH]c4ncccc34)n2)CCN1 (stereo not shown) [Compound 271] | < 500 | – | > 1250
CC(O)(C1CC1)C1CN(c2ccc(F)c(-c3n[nH]c4ncccc34)n2)CCN1 (stereo not shown) [Compound 272] | < 500 | – | > 1250
CC(O)(C1CC1)C1CN(c2ccc(F)c(-c3n[nH]c4ncccc34)n2)CCN1 (stereo not shown) [Compound 273] | < 2800 | – | > 1250
CC(C)C(O)[C@@H]1CCCN(c2ccc(F)c(-c3n[nH]c4ncccc34)n2)C1 (stereo partly shown) [Compound 279] | – | > 700 | –
NCC1CN(c2ccc(F)c(-c3n[nH]c4ncccc34)n2)CCC1O (stereo not shown) [Compound 297] | > 1250 | – | –
Fc1ccc(N2CCCC(C3CCCN3)C2)nc1-c1n[nH]c2ncccc12 (stereo not shown) [Compound 315] | – | > 700 | –
CC(C)(C)CC(N)C1CCCN(c2ccc(F)c(-c3n[nH]c4ncccc34)n2)C1 (stereo not shown) [Compound 318] | < 2800 | – | –
CC(O)(c1ccccc1)C1CN(c2ccc(F)c(-c3n[nH]c4ncccc34)n2)CCN1 (stereo not shown) [Compound 323] | < 2800 | < 50 | –
CC(C)(C)C(N)C1CCN(c2ccc(F)c(-c3n[nH]c4ncccc34)n2)C1 (stereo not shown) [Compound 422] | < 2800 | – | –
CC(C)C(C)(O)C1CN(c2ccc(Cl)c(-c3n[nH]c4ncccc34)n2)CCN1 (stereo not shown) [Compound 438] | < 500 | – | –
CCC(N)C1(C(F)(F)F)CCN(c2ccc(F)c(-c3n[nH]c4ncccc34)n2)C1 (stereo not shown) [Compound 449] | > 1250 | > 700 | –
CC(C)C(C)(O)C1CN(c2cc(CO)cc(-c3n[nH]c4ncccc34)n2)CCN1 (stereo not shown) [Compound 455] | – | – | > 1250
CC1(CN)CCN(c2ccc(C(F)(F)F)c(-c3n[nH]c4ncccc34)n2)CC1 [Compound 463] | – | > 700 | > 1250
CC(C)CC1CN(c2cncc(-c3n[nH]c4ncccc34)n2)CCC1N (stereo not shown) [Compound 468] | – | < 50 | < 500
CC(C)C(C)(O)C1CN(c2cncc(-c3n[nH]c4ncccc34)n2)CCN1 (stereo not shown) [Compound 470] | – | – | < 500

Second part, the molecule after the results:

Ki [1] [nM] | Ki [2] [nM] | Ki [3] [nM] | SMILES
< 2800 | < 500 | > 2800 | Cc1ccc(N2CCNCC2)nc1-c1n[nH]c2ncccc12 [Compound 3]
> 1250 | < 50 | > 1250 | CC(C)C[C@H]1CN(c2ccc(C(F)(F)F)c(-c3n[nH]c4ncccc34)n2)CCN1 [Compound 4, (S)-3-(6-(3-isobutylpiperazin-1-yl)-3-(trifluoromethyl)pyridin-2-yl)-1H-pyrazolo[3,4-b]pyridine]
< 500 | < 50 | < 500 | C=C(F)c1ccc(N2CCN[C@@H](CC(C)C)C2)nc1-c1n[nH]c2ncccc12 [Compound 6]
– | – | > 1250 | C[C@H]1CN(c2cccc(-c3n[nH]c4ncccc34)n2)CCN1 [Compound 19]
– | – | < 2800 | c1ccc(C2CN(c3cccc(-c4n[nH]c5ncccc45)n3)CCN2)cc1 (stereo not shown) [Compound 21]
– | – | < 2800 | CC[C@@H]1CN(c2cccc(-c3n[nH]c4ncccc34)n2)CCN1 [Compound 67]
– | < 50 | – | CC(C)C(C)(O)C1CN(c2cccc(-c3n[nH]c4ncccc34)n2)CCN1 (stereo not shown) [Compound 178]
< 500 | – | < 2800 | CC(C)C(C)(O)C1CN(c2ccc(F)c(-c3n[nH]c4ncccc34)n2)CCN1 (stereo not shown) [Compound 179]
– | – | > 1250 | COC[C@H]1CN(c2ccc(F)c(-c3n[nH]c4ncccc34)n2)CCN1 [Compound 185]
< 2800 | – | > 1250 | CC(C)C[C@@H]1CN(c2ccc(F)c(-c3n[nH]c4ncccc34)n2)CCN1 [Compound 192]
> 1250 | – | > 1250 | CC(C)C(C)(O)C1CN(c2ccc(F)c(-c3n[nH]c4ncccc34)n2)CCN1 (stereo not shown) [Compound 200]
> 1250 | – | > 1250 | CC(C)C(C)(O)C1CN(c2ccc(F)c(-c3n[nH]c4ncccc34)n2)CCN1C (stereo not shown) [Compound 229]
– | – | > 1250 | COC(C)(C(C)C)C1CN(c2ccc(F)c(-c3n[nH]c4ncccc34)n2)CCN1 (stereo not shown) [Compound 239]
– | < 50 | – | C[C@](O)(c1ccccc1)[C@@H]1CN(c2ccc(F)c(-c3n[nH]c4ncccc34)n2)CCN1 [Compound 276]
< 500 | < 50 | – | CC(C)CC1(C)CN(c2ccc(C(F)(F)F)c(-c3n[nH]c4ncccc34)n2)CCC1N (stereo not shown) [Compound 388]
> 1250 | – | – | CCC(CC)C(N)C1CCCN(c2ccc(F)c(-c3n[nH]c4ncccc34)n2)C1 (stereo not shown) [Compound 392]
< 2800 | < 50 | – | CNC(C1CCCN(c2ccc(F)c(-c3n[nH]c4ncccc34)n2)C1)C(C)(C)C (stereo not shown) [Compound 409]
– | > 700 | > 1250 | CC1(C#N)CCN(c2ccc(C(F)(F)F)c(-c3n[nH]c4ncccc34)n2)CC1 [Compound 415]
– | > 700 | > 1250 | CC1(C#N)CCN(c2ccc(F)c(-c3n[nH]c4ncccc34)n2)CC1 [Compound 416]
– | > 700 | > 1250 | CC(C)CC1(C#N)CCN(c2ccc(F)c(-c3n[nH]c4ncccc34)n2)CC1 [Compound 417]
– | < 500 | – | N#CCCC1CN(c2ccc(C(F)(F)F)c(-c3n[nH]c4ncccc34)n2)CCC1O (stereo not shown) [Compound 460]
– | < 500 | > 1250 | CCC1CN(c2ccc(C(F)(F)F)c(-c3n[nH]c4ncccc34)n2)CCC1CN (stereo not shown) [Compound 465]
